Test results: PubChem BioAssay (NCI)
Several values for one entry are separate records, joined by “and”; a condition that tells them apart may be missing. Equal values may be shown once.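 Cells were grown in 96-well plates and exposed to each compound for 48 hours at five concentrations; endpoints were interpolated linearly between bracketing concentrations, or set to the highest concentration if not reached. GI50 = concentration required for 50% inhibition of growth. TGI marks complete inhibition of growth.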

Experiments:
Experiment in all cases: NCI tumour cell line growth inhibition, 48 h
DLD-1 colon = system: DLD-1 colon
DMS 273 small cell lung = system: DMS 273 small cell lung
HOP-18 NSCLC = system: HOP-18 NSCLC
LXFL 529 NSCLC = system: LXFL 529 NSCLC
SNB-78 CNS = system: SNB-78 CNS
DMS 114 small cell lung = system: DMS 114 small cell lung
MCF7 breast = system: MCF7 breast
MDA-MB-231 breast = system: MDA-MB-231 breast
NCI/ADR-RES ovarian = system: NCI/ADR-RES ovarian
T-47D breast = system: T-47D breast

| SMILES | TGI (DLD-1 colon) | TGI (DMS 273 small cell lung) | TGI (HOP-18 NSCLC) | TGI (LXFL 529 NSCLC) | TGI (SNB-78 CNS) | TGI (DMS 114 small cell lung) | TGI (MCF7 breast) | TGI (MDA-MB-231 breast) | GI50 (NCI/ADR-RES ovarian) | TGI (NCI/ADR-RES ovarian) | TGI (T-47D breast) | GI50 (DLD-1 colon) | GI50 (DMS 273 small cell lung) | GI50 (HOP-18 NSCLC) | GI50 (LXFL 529 NSCLC) | GI50 (SNB-78 CNS) |
| --- | --- | --- | --- | --- | --- | --- | --- | --- | --- | --- | --- | --- | --- | --- | --- | --- |
| Nc1nc2nc[nH]c2c(=O)[nH]1 | > 100 µM | > 100 µM | > 100 µM | > 100 µM | > 100 µM | – | – | – | – | – | – | – | – | – | – | – |
| Nc1ccn(C2CC(CO)C(O)C2O)c(=O)n1 (stereo unspecified) | > 57.7 µM | > 57.7 µM | > 57.7 µM | > 57.7 µM | > 57.7 µM | > 57.7 µM | – | – | – | – | – | – | – | – | – | – |
| COc1ccc(/C=C2\CCC(C)(CN(C)C)C2=O)cc1 (stereo unspecified) | > 100 µM | > 100 µM | > 100 µM | > 100 µM | > 100 µM | > 100 µM | – | – | – | – | – | – | – | – | – | – |
| COC(=O)C1=C(CO)C2C=CC1C2 (stereo unspecified) | > 100 µM | > 100 µM | > 100 µM | > 100 µM | > 100 µM | – | – | – | – | – | – | – | – | – | – | – |
| Nc1c(-c2ccc(Cl)cc2Cl)[n+]([O-])c2ccccc2[n+]1[O-] | > 100 µM | > 100 µM | > 100 µM | > 100 µM | > 100 µM | > 100 µM | – | – | – | – | – | – | – | – | – | – |
| CC1C=CC(=O)C(n2cc(F)c(=O)[nH]c2=O)O1 (stereo unspecified) | 45.3 µM | 47.4 µM | 22.6 µM | – | 83.8 µM | 31.5 µM | – | – | – | – | – | – | – | – | – | – |
| NC1=N/C(=C2/CCNC(=O)c3[nH]c(Br)cc32)C(=O)N1 | > 100 µM | > 100 µM | > 100 µM | – | > 100 µM | > 100 µM | > 100 µM | 16.2 µM | 11.9 µM and > 43.3 µM | > 100 µM | 51.8 µM | – | – | – | – | – |
| Cc1cc(Cl)cc2c1NC(=O)C2(O)C(C)C(=O)c1ccc(Cl)cc1 (stereo unspecified) | > 100 µM | > 100 µM | > 100 µM | > 100 µM | > 100 µM | > 96.6 µM | – | – | – | – | – | – | – | – | – | – |
| CC(C)=CC(=O)Cc1nc2cc(C)c(C)cc2[nH]c1=O | > 100 µM | > 100 µM | > 100 µM | > 100 µM | > 100 µM | – | – | – | – | – | – | – | – | – | – | – |
| CC12CCC[C@@](C)(C(=O)OC3OC(CO)C(O)C(O)C3O)[C@H]1CCC13CC4CC(OC4(CO)[C@H]1O)[C@@H]23 (stereo partly specified) | > 100 µM | > 100 µM | > 100 µM | > 100 µM | > 100 µM | 87.9 µM | – | – | – | – | – | – | – | – | – | – |
| N.N.NCCCCN.O=C([O-])C1(C(=O)[O-])CCC1.O=C([O-])C1(C(=O)[O-])CCC1.[Pt+4].[Pt+4] | > 100 µM | > 100 µM | > 100 µM | > 100 µM | > 100 µM | – | – | – | – | – | – | > 100 µM | > 100 µM | > 100 µM | > 100 µM | > 100 µM |
| CN(C)CCNC(=O)c1cccc2[nH]c(-c3ccccc3)nc12 | 39.2 µM | 39.6 µM | 46.1 µM | – | > 100 µM | 32.3 µM | – | – | – | – | – | – | – | – | – | – |
| CC1OC(OCC2COC(O)(Oc3c(-c4ccc(O)c(O)c4)oc4cc(O)cc(O)c4c3=O)C(O)C2O)C(O)C(O)C1O (stereo unspecified) | > 100 µM | > 100 µM | > 100 µM | > 100 µM | > 100 µM | > 100 µM | – | – | – | – | – | – | – | – | – | – |
| CS(=O)(=O)Nc1ccc(Nc2c3ccccc3nc3ccccc23)cc1 | 24.7 µM | 14.3 µM | 15 µM | 18.7 µM | 28.7 µM | 17 µM | 13 µM | 17.8 µM | – | 41.8 µM | 21 µM | – | – | – | – | – |
| O=c1cnn2c(n1)sc1ccc3ccccc3c12 | > 100 µM | > 100 µM | > 100 µM | > 100 µM | > 100 µM | > 100 µM | – | – | – | – | – | – | – | – | – | – |
| N#CCCN(c1ccc(-c2nnc(NC(=O)CNNC(=O)CC(=O)Nc3ccccc3)s2)cc1)S(=O)(=O)c1ccccc1 | > 100 µM | > 100 µM | > 100 µM | > 100 µM | – | > 100 µM | – | – | – | – | – | – | – | – | – | – |
| CC1=C(C(=O)Nc2ccc(Cl)c(Cl)c2)C(c2ccco2)C(C(=O)Nc2ccc(Cl)c(Cl)c2)=C(C)N1 | 23.4 µM | 32.7 µM | 26.7 µM | 24.2 µM | 41.4 µM | 22.2 µM | – | – | – | – | – | – | – | – | – | – |
| OCC12C3C4C1C1C2C3C41CO (stereo unspecified) | > 100 µM | – | > 100 µM | > 100 µM | > 100 µM | > 100 µM | – | – | – | – | – | – | – | – | – | – |
| CCOC(=O)c1cn(Cc2ccccc2)c(=O)n1Cc1ccccc1 | > 100 µM | > 100 µM | > 100 µM | > 100 µM | > 100 µM | > 100 µM | – | – | – | – | – | – | – | – | – | – |
| COc1ccc2c(c1)OC[C@@H]1c3cc4c(cc3O[C@H]21)OCO4 | > 100 µM | > 100 µM | > 100 µM | > 100 µM | > 100 µM | > 100 µM | – | – | – | – | – | – | – | – | – | – |
| Cc1ccc(C)c(NC(=O)CC/C(=N\NC(=O)C(N)=O)C(C)C(=O)c2ccc(O)cc2)c1 (stereo unspecified) | > 100 µM | – | > 100 µM | > 100 µM | > 100 µM | > 100 µM | – | – | – | – | – | – | – | – | – | – |
| Cc1ccccc1CN1CC=c2ccccc2=N1 | > 100 µM | > 100 µM | > 100 µM | – | > 100 µM | > 100 µM | – | – | – | – | – | – | – | – | – | – |
| CCN(CC)C(=O)COc1ccc(Br)cc1Br | > 100 µM | > 100 µM | > 100 µM | > 100 µM | > 100 µM | > 100 µM | – | – | – | – | – | – | – | – | – | – |
| O=C1C(=O)C(Br)(Br)C(Br)=C1Br | 41.4 µM | 48.1 µM | 29.8 µM | 29 µM | – | 40.8 µM | – | – | – | – | – | – | – | – | – | – |
